# Results published in patent US7662853B2, “Monoacetyldiacylglycerol derivative for the treatment of sepsis” (priority 2004, dated 2010).
# Legend:
# B16F10 cells = assay: Melanoma model in mice; format: in vivo, C57BL/6 mice; settings: Compound 3 50 mg/kg/day P.O.
# Method: 6 week female C57BL/6 mice (provided from Asan Institute for Life Sciences Animal Lab., Seoul, Korea) were housed in specific pathogen free unit.
# B16F10 cells (2×10^4) suspended in 100 μl of RPMI 1640 serum-free medium were intravenously injected via tail vein. One week before tumor cell injection, the following 3 groups were treated.
# 2) Dendritic cells (DC) (5×10^5 cells/day)+tumor lysate treated group
# In the case of DC+tumor lysate treated group, one week before melanoma injection, 5×10^5 DC cells mixed with tumor lysate were injected to the abdominal cavity every 1 weeks. […] As a result, gross findings at 4th week control group observed multiple metastatic lesions in both lungs.
# KIGB-5 cells = assay: Biliary cancer model in hamster, Compound 3 dose groups; format: in vivo, Syrian golden hamsters; settings: for gross findings, tumor: 4th week
# Method: In another hand, six week old female Syrian golden hamsters were housed in specific pathogen free unit. KIGB-5 cells (5×10^5) suspended in 100 μl of RPMI 1640 serum-free medium were intravenously injected via femoral vein. […] Animals of each group were sacrificed at 4, 8, 12 weeks for pathological examination. […] At 8th week, control group observed multiple metastatic lesions in both lungs.
# [1] = Toxicity test, single oral administration; format: in vivo; settings: mouse, in vivo; ICR mice, oral, single dose, 14 days
# Method: (§1) Control group was treated 5% ethanol solution. IRC mice, housed in SPF facility were used as test animals. […] Weight increment rate(%)={Weight of day 14−Weight of day 0}÷{Weight of day 0}×100 [Mathematical Formula 2]
# ICR mice = assay: Toxicity test, single oral administration; format: in vivo; settings: for Number of dead mice/Number of orally administered mice: 14 days
# Method: as §1
# rats = assay: Long term hepatotoxicity test; format: in vivo; settings: 100 mg/Kg body weight/day P.O. for 4 weeks
# Text: At the end of 4 weeks liver histology was observed.
# KIBG-5 cells = assay: Biliary cancer model in hamster (7 treatment groups); format: in vivo, Syrian golden hamsters; settings: Compound 3 25 mg/kg/day P.O.
# Method: Six week old female Syrian golden hamsters (Harlan, Indianapolis, […], USA) were housed in specific pathogen free unit. 5×10^5 KIBG-5 cells (Molecular therapy, Vol. 3, No. 4, pp 431-437) suspended in 100 μl of RPMI 1640 serum-free medium were intravenously injected via femoral vein. And 5×10^5 KIBG-5 cells suspended in 100 μl of RPMI 1640 serum-free medium were subcutaneously injected to the flank of the hamsters. Hamsters injected KIBG-5 were divided into following 7 groups;
# 1) Control group treated with RPMI medium,
# 2) Experimental group treated with non-modified BMSC cells (2.5×10^6) (Leukemia & Lymphoma, Vol. 44, No. 11, pp 1973-1978),
# 3) Experimental group treated with BMSC cells modified with Ad/ΔE1 50 MOI (Leukemia & Lymphoma, Vol. 44, No. 11, pp 1973-1978),
# 4) Experimental group treated with DC+ tumor lysate (5×10^6),
# 5) Experimental group treated with BMSC cells modified with Ad/hIL-2 50 MOI (Leukemia & Lymphoma, Vol. 44, No. 11, pp 1973-1978),
# One week after the injection of cancer cells to hamsters (BMSC treated group), 2.5×10^6 of BMSC cells were injected once again to each hamster. In the case of DC+tumor lysate treated group, 5×10^6 of DC cells and tumor lysate were injected to each hamster (with subcutaneous injection or intravenous injection) at the first, second, third, forth, sixth, eighth week, followed by observation for 12 weeks.
# malignant melanoma cells = assay: Cytotoxicity of T-cells activated by Compound 3 to malignant melanoma cells; format: cell-based; settings: ratio of T-cells activated by Compound 3 to melanoma cells 100:1; FIG. 16: 1 μg/ml
smiles,measurement,setting,value
CCCCC/C=C\C/C=C\CCCCCCCC(=O)OC(COC(C)=O)COC(=O)CCCCCCCCCCCCCCC (stereo not drawn) [Compound 3],"gross findings, metastatic lesions in the lung",B16F10 cells; 4th week after B16F10 i.v. injection,no evidence of disease in the lung
same,Survival rate,B16F10 cells; observation for 6 weeks after melanoma (B16F10) injection,90%
same,"gross findings, tumor",KIGB-5 cells; 10 mg/kg/day P.O.,no evidence of tumor
same,"gross findings, tumor",KIGB-5 cells; 25 mg/kg/day P.O.,no evidence of tumor
same,"gross findings, tumor",KIGB-5 cells; 50 mg/kg/day P.O.,no evidence of tumor
same,metastatic lung lesions,"KIGB-5 cells; 8th week, 10 mg/kg/day P.O.",showed tumor in the left lung
same,metastatic lung lesions with microscope,"KIGB-5 cells; 8th week, 25 mg/kg/day P.O.",showed one minute lesion with microscope
same,metastatic lung lesions with naked eye,"KIGB-5 cells; 8th week, 25 mg/kg/day P.O.",did not show any metastatic lung lesions with naked eye
same,metastatic lung lesions with naked eye,"KIGB-5 cells; 8th week, 50 mg/kg/day P.O.",did not show any metastatic lung lesions with naked eye
same,LD50 at 14 days,[1],> 2000 mg/kg
same,Death rate,ICR mice; 62.5 mg/kg oral once,12.5%
same,Number of dead mice/Number of orally administered mice,ICR mice; 62.5 mg/kg oral once,1/8
same,toxicity,"ICR mice; 62.5 mg/kg˜2 g/kg oral once, 14 days observation",No toxicity was seen
same,Death rate,ICR mice; 125 mg/kg oral once,30%
same,Number of dead mice/Number of orally administered mice,ICR mice; 125 mg/kg oral once,0/8
same,Death rate,ICR mice; 250 mg/kg oral once,12.5%
same,Number of dead mice/Number of orally administered mice,ICR mice; 250 mg/kg oral once,1/8
same,Death rate,ICR mice; 500 mg/kg oral once,22.2%
same,Number of dead mice/Number of orally administered mice,ICR mice; 500 mg/kg oral once,2/9
same,Death rate,ICR mice; 1000 mg/kg oral once,0%
same,Number of dead mice/Number of orally administered mice,ICR mice; 1000 mg/kg oral once,0/9
same,Death rate,ICR mice; 2000 mg/kg oral once,0%
same,Number of dead mice/Number of orally administered mice,ICR mice; 2000 mg/kg oral once,0/9
same,"adverse effect (liver function test, lipid profile, cytochrome C-450 activity, liver histology)",rats,No significantly adverse effect was observed
same,tumor formation,KIBG-5 cells; 4 weeks after cancer cell injection,no tumor were found
same,metastatic lung lesions,KIBG-5 cells; 8 weeks after cancer cell injection (i.v.),only one minute lung lesion was found
same,cytotoxicity increased,malignant melanoma cells,42%
